ChEMBL document CHEMBL1649217, “Emergence of Klebsiella pneumoniae ST258 with KPC-2 in Poland” (2009)
Converted amounts (≈) assume the structure as drawn.

What was measured:
Format in all cases: functional
Klebsiella pneumoniae [1] = assay: Antimicrobial activity against Klebsiella pneumoniae isolate 2641/08 obtained from urine of patient with ischemic cardiomyopathy and several comorbidities by Etest
Escherichia coli [2] = assay: Antimicrobial activity against rifampicin-resistant Escherichia coli A15 transconjugant expressing beta-lactamase KPC-2/TEM-1 by Etest
Escherichia coli [3] = assay: Antimicrobial activity against rifampicin-resistant Escherichia coli A15 transconjugant expressing beta-lactamase SHV-12 by Etest
Escherichia coli [4] = assay: Antimicrobial activity against rifampicin-resistant Escherichia coli A15 by Etest
Klebsiella pneumoniae [5] = assay: Antimicrobial activity against Klebsiella pneumoniae isolate 2337/08 obtained from patient with ischemic cardiomyopathy and several comorbidities
Klebsiella pneumoniae [6] = assay: Antimicrobial activity against Klebsiella pneumoniae isolate 2641/08 obtained from urine of patient with ischemic cardiomyopathy and several comorbidities by Etest in presence of beta-lactamase inhibitor Tazobactam; conditions: isolate 2641/08, Urine
Escherichia coli [7] = assay: Antimicrobial activity against rifampicin-resistant Escherichia coli A15 transconjugant expressing beta-lactamase KPC-2/TEM-1 by Etest in presence of beta-lactamase inhibitor Tazobactam
Escherichia coli [8] = assay: Antimicrobial activity against rifampicin-resistant Escherichia coli A15 transconjugant expressing beta-lactamase SHV-12 by Etest in presence of beta-lactamase inhibitor Tazobactam
Escherichia coli [9] = assay: Antimicrobial activity against rifampicin-resistant Escherichia coli A15 by Etest in presence of beta-lactamase inhibitor Tazobactam
Klebsiella pneumoniae [10] = assay: Antimicrobial activity against Klebsiella pneumoniae isolate 2641/08 obtained from urine of patient with ischemic cardiomyopathy and several comorbidities by Etest in presence of beta-lactamase inhibitor clavulanic acid; conditions: isolate 2641/08, Urine
Escherichia coli [11] = assay: Antimicrobial activity against rifampicin-resistant Escherichia coli A15 transconjugant expressing beta-lactamase KPC-2/TEM-1 by Etest in presence of beta-lactamase inhibitor clavulanic acid
Escherichia coli [12] = assay: Antimicrobial activity against rifampicin-resistant Escherichia coli A15 transconjugant expressing beta-lactamase SHV-12 by Etest in presence of beta-lactamase inhibitor clavulanic acid
Escherichia coli [13] = assay: Antimicrobial activity against rifampicin-resistant Escherichia coli A15 by Etest in presence of beta-lactamase inhibitor clavulanic acid

Molecule	MIC (Klebsiella pneumoniae [1]; isolate 2641/08, Urine)	MIC (Escherichia coli [2])	MIC (Escherichia coli [3])	MIC (Escherichia coli [4])	further results
CO/N=C(\C(=O)N[C@@H]1C(=O)N2C(C(=O)O)=C(COC(C)=O)CS[C@H]12)c1csc(N)n1 [CEFOTAXIME]	128 µg/mL (≈ 281 µM)	2 µg/mL (≈ 4.39 µM)	1.5 µg/mL (≈ 3.29 µM)	0.047 µg/mL (≈ 0.103 µM)	
C[C@@H](O)[C@H]1C(=O)N2C(C(=O)O)=C(S[C@@H]3CN[C@H](C(=O)N(C)C)C3)[C@H](C)[C@H]12 [MEROPENEM]	3 µg/mL (≈ 7.82 µM)	0.75 µg/mL (≈ 1.96 µM)	0.047 µg/mL (≈ 0.123 µM)	0.032 µg/mL (≈ 0.0834 µM)	
GENTAMICIN		0.25 µg/mL	0.19 µg/mL	0.19 µg/mL	MIC (Klebsiella pneumoniae [1]): 1 µg/mL
COLISTIN		0.25 µg/mL	0.19 µg/mL	0.25 µg/mL	MIC (Klebsiella pneumoniae [1]): 0.38 µg/mL
O=C(O)c1cn(C2CC2)c2cc(N3CCNCC3)c(F)cc2c1=O [CIPROFLOXACIN]	> 32 µg/mL				
CN(C)c1cc(NC(=O)CNC(C)(C)C)c(O)c2c1C[C@H]1C[C@H]3[C@H](N(C)C)C(O)=C(C(N)=O)C(=O)[C@@]3(O)C(O)=C1C2=O [TIGECYCLINE]	3 µg/mL (≈ 5.12 µM)	0.38 µg/mL (≈ 0.649 µM)	0.38 µg/mL (≈ 0.649 µM)	0.38 µg/mL (≈ 0.649 µM)	
CC(C)(O/N=C(\C(=O)N[C@@H]1C(=O)N2C(C(=O)[O-])=C(C[n+]3ccccc3)CS[C@H]12)c1csc(N)n1)C(=O)O [CEFTAZIDIME]	> 256 µg/mL	3 µg/mL (≈ 5.49 µM)	16 µg/mL (≈ 29.3 µM)	0.25 µg/mL (≈ 0.457 µM)	
CN(C)[C@@H]1C(O)=C(C(N)=O)C(=O)[C@@]2(O)C(O)=C3C(=O)c4c(O)cccc4[C@@](C)(O)[C@H]3C[C@@H]12 [TETRACYCLINE]	32 µg/mL (≈ 72 µM)	2 µg/mL (≈ 4.5 µM)	1.5 µg/mL (≈ 3.38 µM)	2 µg/mL (≈ 4.5 µM)	
CC1(C)S[C@@H]2[C@H](NC(=O)[C@H](N)c3ccccc3)C(=O)N2[C@H]1C(=O)O [AMPICILLIN]	> 256 µg/mL	> 256 µg/mL	> 256 µg/mL	3 µg/mL (≈ 8.59 µM)	
C[C@@H](O)[C@H]1C(=O)N2C(C(=O)O)=C(SCCNC=N)C[C@H]12 [IMIPENEM ANHYDROUS]	2 µg/mL (≈ 6.68 µM)	3 µg/mL (≈ 10 µM)	0.25 µg/mL (≈ 0.835 µM)	0.25 µg/mL (≈ 0.835 µM)	MIC (Klebsiella pneumoniae [5]): 2 µg/mL (≈ 6.68 µM)
CO/N=C(\C(=O)N[C@@H]1C(=O)N2C(C(=O)[O-])=C(C[N+]3(C)CCCC3)CS[C@H]12)c1csc(N)n1	> 32 µg/mL	1.5 µg/mL (≈ 3.12 µM)	0.5 µg/mL (≈ 1.04 µM)	0.047 µg/mL (≈ 0.0978 µM)	
CCN1CCN(C(=O)N[C@@H](C(=O)N[C@@H]2C(=O)N3[C@@H]2SC(C)(C)[C@@H]3C(=O)O)c2ccccc2)C(=O)C1=O [PIPERACILLIN]	> 256 µg/mL	96 µg/mL (≈ 185 µM)	32 µg/mL (≈ 61.8 µM)	1.5 µg/mL (≈ 2.9 µM)	MIC (Klebsiella pneumoniae [6]): > 256 µg/mL; MIC (Escherichia coli [7]): 48 µg/mL; MIC (Escherichia coli [8]): 1 µg/mL; MIC (Escherichia coli [9]): 1 µg/mL
CC1(C)S[C@@H]2[C@H](NC(=O)[C@H](N)c3ccc(O)cc3)C(=O)N2[C@H]1C(=O)O [AMOXICILLIN]					MIC (Klebsiella pneumoniae [10]): > 256 µg/mL; MIC (Escherichia coli [11]): 24 µg/mL; MIC (Escherichia coli [12]): 4 µg/mL; MIC (Escherichia coli [13]): 4 µg/mL
NCC[C@H](O)C(=O)N[C@@H]1C[C@H](N)[C@@H](O[C@H]2O[C@H](CN)[C@@H](O)[C@H](O)[C@H]2O)[C@H](O)[C@H]1O[C@H]1O[C@H](CO)[C@@H](O)[C@H](N)[C@H]1O [AMIKACIN]	12 µg/mL (≈ 20.5 µM)	1.5 µg/mL (≈ 2.56 µM)	1 µg/mL (≈ 1.71 µM)	1 µg/mL (≈ 1.71 µM)	
